Holding throughout (assay): Affinity for strigolactone receptor, YLG probe competition (fluorescence)
Holding throughout (format): binding
Holding throughout (details): competition with YLG, test range 0.01 to 10 µM, pH 7.0, read-out: IC50 values of test compounds

Assay [1] addresses T1, HTL10 (Striga hermonthica, UniProt A0A0M4AH20).
T1 sequence (A0A0M4AH20 1-268): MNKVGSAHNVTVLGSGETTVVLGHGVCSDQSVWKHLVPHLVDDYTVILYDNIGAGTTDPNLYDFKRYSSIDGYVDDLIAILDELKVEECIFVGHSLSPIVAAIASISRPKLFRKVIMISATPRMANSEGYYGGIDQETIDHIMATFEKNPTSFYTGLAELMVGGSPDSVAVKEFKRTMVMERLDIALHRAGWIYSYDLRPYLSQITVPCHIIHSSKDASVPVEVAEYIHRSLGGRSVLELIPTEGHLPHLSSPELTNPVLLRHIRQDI
The method, then:
(§1) PTL 1 reports that the affinity of a test compound for the strigolactone receptor can be evaluated by reacting strigolactone with a probe for evaluation of affinity for a strigolactone receptor (e.g., YLG) in the presence of the test compound, and measuring the fluorescence emitted from the decomposition product of YLG. Therefore, the compounds synthesized in Example 1 were used as the test compounds, and the affinity for the strigolactone receptor was evaluated by a similar method to the above. The details are as follows.
(§2) An Arabidopsis thaliana strigolactone receptor (AtD14) was produced in accordance with a usual method. More specifically, cDNA of the receptor was obtained by RT-PCR, and expression and purification were carried out in E. coli. Additionally, Striga strigolactone receptors were produced by the method disclosed in PTL 1 (ShHTL1: amino acid SEQ ID NO: 1, ShHTL2: amino acid SEQ ID NO: 2, ShHTL3: amino acid SEQ ID NO: 3, ShHTL4: amino acid SEQ ID NO: 4, ShHTL5: amino acid SEQ ID NO: 5, ShHTLS: amino acid SEQ ID NO: 6, ShHTL7: amino acid SEQ ID NO: 7, ShHTLS: amino acid SEQ ID NO: 8, ShHTL9: amino acid SEQ ID NO: 9, ShHTL10: amino acid SEQ ID NO: 10, and ShHTL11: amino acid SEQ ID NO: 11.)
(§3) One hundred microliters of a reaction solution containing each of the obtained strigolactone receptors ([…]), YLG (final concentration: […]), and each of the test compounds (final concentration: 0.01 to 10 µM) or the control compound (5-deoxystrigol, final concentration: 0.01 to 10 µM) as a competitive compound (100 mM HEPES, 150 mM NaCl, pH: 7.0, 0.1% DMSO) was prepared and reacted in a 96 black-well plate (Greiner). Sixty after the initiation of the reaction, fluorescence was detected at an excitation wavelength of 480 nm and a detection wavelength of 520 nm using a fluorescence detector (SpectraMax i3, manufactured by Molecular Devices), and the fluorescence intensity was measured. Based on the measurement results of fluorescence intensity, a Lineweaver-Burk plot was created to calculate the Km values, and the IC50 values of each of the test compounds and the control compound, which are competitive compounds.
(§4) In Table 7, HTL1 to HTL11 refer to strigolactone receptors (SEQ ID NOs: 1 to 11), and AtD14 refer to the Arabidopsis thaliana strigolactone receptor.

In assay [2] the target is T2, HTL11 (Striga hermonthica, UniProt A0A0M4AS18).
T2 sequence (A0A0M4AS18 1-268): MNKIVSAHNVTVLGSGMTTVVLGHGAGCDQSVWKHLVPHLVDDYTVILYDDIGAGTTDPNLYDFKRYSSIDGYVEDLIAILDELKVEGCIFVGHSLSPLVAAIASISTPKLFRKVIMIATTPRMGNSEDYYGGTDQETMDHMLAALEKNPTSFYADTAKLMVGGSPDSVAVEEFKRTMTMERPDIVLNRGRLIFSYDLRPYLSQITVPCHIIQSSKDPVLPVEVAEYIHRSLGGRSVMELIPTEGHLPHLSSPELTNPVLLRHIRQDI
The method, then:
as §1, §2, §3, §4

The target of assay [3] is T3, HTL3 (Striga hermonthica, UniProt A0A0M3PN85).
T3 sequence (A0A0M3PN85 1-276): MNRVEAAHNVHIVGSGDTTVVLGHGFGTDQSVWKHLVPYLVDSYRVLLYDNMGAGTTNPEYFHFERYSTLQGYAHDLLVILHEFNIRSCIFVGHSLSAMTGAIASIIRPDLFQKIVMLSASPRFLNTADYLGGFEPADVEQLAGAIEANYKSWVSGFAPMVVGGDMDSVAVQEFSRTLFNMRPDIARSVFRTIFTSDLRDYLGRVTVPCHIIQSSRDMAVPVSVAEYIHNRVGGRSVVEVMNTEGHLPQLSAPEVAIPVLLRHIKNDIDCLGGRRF
The method, then:
as §1, §2, §3, §4

The target of assay [4] is T4, HTL4 (Striga hermonthica, UniProt A0A0M4AMQ0).
T4 sequence (A0A0M4AMQ0 1-271): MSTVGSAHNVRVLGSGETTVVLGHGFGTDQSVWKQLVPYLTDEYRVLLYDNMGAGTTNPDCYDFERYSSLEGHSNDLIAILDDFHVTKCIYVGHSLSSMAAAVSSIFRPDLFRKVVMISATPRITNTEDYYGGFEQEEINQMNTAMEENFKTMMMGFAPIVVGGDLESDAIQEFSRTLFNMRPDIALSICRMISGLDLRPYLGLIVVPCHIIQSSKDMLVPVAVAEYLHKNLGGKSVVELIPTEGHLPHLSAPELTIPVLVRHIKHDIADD
The method, then: as §1, §2, §3, §4

For assay [5], the target named is T5, HTL5 (Striga hermonthica, UniProt A0A0M5I297).
T5 sequence (A0A0M5I297 1-271): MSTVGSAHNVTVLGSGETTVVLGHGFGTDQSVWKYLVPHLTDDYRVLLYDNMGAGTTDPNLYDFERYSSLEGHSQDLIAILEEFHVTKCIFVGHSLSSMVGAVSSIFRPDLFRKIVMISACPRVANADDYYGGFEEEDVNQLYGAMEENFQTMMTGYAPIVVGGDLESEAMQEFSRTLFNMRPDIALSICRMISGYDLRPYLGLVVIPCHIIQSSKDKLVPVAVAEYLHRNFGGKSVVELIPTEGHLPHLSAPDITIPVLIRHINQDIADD
The method, then: as §1, §2, §3, §4

In assay [6] the target is T6, HTL6 (Striga hermonthica, UniProt A0A0M4AUV4).
T6 sequence (A0A0M4AUV4 1-271): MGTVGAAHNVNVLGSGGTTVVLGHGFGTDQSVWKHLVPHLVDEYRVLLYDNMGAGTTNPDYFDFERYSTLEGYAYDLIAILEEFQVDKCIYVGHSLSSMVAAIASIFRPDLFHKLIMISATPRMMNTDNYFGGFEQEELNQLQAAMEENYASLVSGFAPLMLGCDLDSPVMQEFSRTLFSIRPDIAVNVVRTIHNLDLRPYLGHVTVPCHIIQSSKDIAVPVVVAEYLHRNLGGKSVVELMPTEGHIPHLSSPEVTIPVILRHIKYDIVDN
The procedure: as §1, §2, §3, §4

As to `CC1=CC(OC=C2C(=O)OC3C4=C(CCCC4(C)C)CC23)OC1=O` (stereo not drawn) [5-Ddeoxystriqol, 5-deoxystrigol, reference compound], the IC50 in assay [1] was determined as 0.62 µM; in assay [2] it was 1.6 µM; in assay [3], 9.3 µM; in assay [4], 0.3 µM; in assay [5] it was 3.6 µM; in assay [6] it was 0.19 µM.

Regarding `CCCCOc1ccc(S(=O)(=O)N2CCN(C(=O)OC3C=C(C)C(=O)O3)CC2)cc1` (stereo not drawn) [Compound 1], the IC50 in assay [1] was over 10 µM; in assay [2], 1.8 µM; in assay [3], over 10 µM; in assay [4], over 10 µM; in assay [5] it was over 10 µM; in assay [6], over 10 µM.

With `CC1=CC(OC(=O)NCc2ccccc2)OC1=O` (stereo not drawn) [Comparison Compound 1, reference compound], the IC50 is over 10 µM in assay [1]; 0.66 µM in assay [2]; over 10 µM in assay [3]; over 10 µM in assay [4]; over 10 µM in assay [5]; over 10 µM in assay [6].

`CCCCOc1ccc(S(=O)(=O)N2CCN(C(=O)OC3C=CC(=O)O3)CC2)cc1` (stereo not drawn) [Compound 13]: the IC50 in assay [1] was over 10 µM; in assay [2] it was over 10 µM; in assay [3], 2 µM; in assay [4] it was over 10 µM; in assay [5] it was over 10 µM; in assay [6] it was over 10 µM.

Values taken from EP3693362B1, “PARASITIC PLANT GERMINATION REGULATOR” (National University Corporation Tokai National Higher …, priority 2017, dated 2019).
